The Kinase Knowledgebase extract (Sharma et al. 2016)

Target: PIK3CG (human) (UniProt P48736)
Assay: Assessment of PIK3CG Kinase Activity

Sequence of PIK3CG (human) (P48736 whole entry, looked up): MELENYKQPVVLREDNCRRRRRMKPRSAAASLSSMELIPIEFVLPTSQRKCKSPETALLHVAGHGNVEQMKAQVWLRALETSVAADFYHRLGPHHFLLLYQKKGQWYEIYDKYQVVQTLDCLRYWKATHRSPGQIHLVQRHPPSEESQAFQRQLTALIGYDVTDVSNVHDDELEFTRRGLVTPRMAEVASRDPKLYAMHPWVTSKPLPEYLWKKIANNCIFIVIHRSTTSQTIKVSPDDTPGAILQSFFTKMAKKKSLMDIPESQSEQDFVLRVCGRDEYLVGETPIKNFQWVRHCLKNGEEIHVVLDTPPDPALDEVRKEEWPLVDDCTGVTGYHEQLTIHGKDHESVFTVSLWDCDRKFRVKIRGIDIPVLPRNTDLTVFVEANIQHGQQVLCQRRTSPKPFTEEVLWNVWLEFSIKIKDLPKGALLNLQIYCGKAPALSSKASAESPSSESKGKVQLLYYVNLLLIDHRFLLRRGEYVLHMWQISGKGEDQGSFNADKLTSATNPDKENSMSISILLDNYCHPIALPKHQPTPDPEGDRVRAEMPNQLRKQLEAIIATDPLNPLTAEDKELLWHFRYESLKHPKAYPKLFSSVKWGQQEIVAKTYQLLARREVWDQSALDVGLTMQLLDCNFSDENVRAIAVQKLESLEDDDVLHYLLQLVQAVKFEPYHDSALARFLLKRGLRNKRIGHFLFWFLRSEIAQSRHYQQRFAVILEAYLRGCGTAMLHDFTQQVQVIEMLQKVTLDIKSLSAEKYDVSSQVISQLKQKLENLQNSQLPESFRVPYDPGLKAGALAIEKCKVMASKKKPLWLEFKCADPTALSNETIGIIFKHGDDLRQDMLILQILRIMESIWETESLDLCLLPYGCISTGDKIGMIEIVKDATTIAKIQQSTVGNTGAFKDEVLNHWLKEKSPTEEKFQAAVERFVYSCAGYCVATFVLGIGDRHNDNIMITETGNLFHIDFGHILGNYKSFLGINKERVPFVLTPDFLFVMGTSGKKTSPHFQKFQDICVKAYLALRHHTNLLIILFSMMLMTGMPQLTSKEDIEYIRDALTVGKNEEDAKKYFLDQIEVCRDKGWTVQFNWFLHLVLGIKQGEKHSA

SMILES	IC50
CC(=O)Nc1nc2c(s1)-c1nc(-c3cc(Cl)cc(C#CC4CCN(C5CCCC5)CC4)c3)ncc1CC2	< 600 nM
CC(=O)Nc1nc2c(s1)-c1nc(-c3cc(C#CCNS(=O)(=O)C4CCCCC4)ccc3Cl)ncc1CC2	< 600 nM
CC(=O)Nc1nc2c(s1)-c1nc(-c3cc(C#CCN(C)S(=O)(=O)C(C)C)ccc3Cl)ncc1CC2	< 600 nM
CC(=O)Nc1nc2c(s1)-c1nc(-c3cc(C#CCCN4CCCC4)ccc3Cl)ncc1CC2	< 600 nM
CC(=O)Nc1nc2c(s1)-c1nc(-c3cc(C#CCC4CCCC4)ccc3Cl)ncc1CC2	< 600 nM
CC(=O)Nc1nc2c(s1)-c1nc(-c3cc(C#CCN4CCN(C)C(=O)C4)ccc3Cl)ncc1CC2	< 600 nM
COC1CCN(S(=O)(=O)NCC#Cc2ccc(Cl)c(-c3ncc4c(n3)-c3sc(NC(C)=O)nc3CC4)c2)CC1	< 600 nM
CC(=O)Nc1nc2c(s1)-c1nc(-c3cc(C#CC4CCN(C(=O)N5CCOCC5)CC4)ccc3Cl)ncc1CC2	< 600 nM
CC(=O)Nc1nc2c(s1)-c1nc(-c3cc(C#CCCN4CCN(C)CC4)ccc3Cl)ncc1CC2	< 600 nM
CC(=O)Nc1nc2c(s1)-c1nc(-c3cc(C#CCN4CCS(=O)(=O)CC4)ccc3Cl)ncc1CC2	< 600 nM
CC(=O)Nc1nc2c(s1)-c1nc(-c3cc(C#CCNC(=O)C4CC4)ccc3Cl)ncc1CC2	< 600 nM
CC(=O)Nc1nc2c(s1)-c1nc(-c3cc(C#CCN4CCN(C)CC4)ccc3Cl)ncc1CC2	< 600 nM
CC(=O)Nc1nc2c(s1)-c1nc(-c3cc(C#CCNC(=O)NC4CCCC4)ccc3Cl)ncc1CC2	< 600 nM
CC(=O)Nc1nc2c(s1)-c1nc(-c3cc(C#CCNC(=O)CC4CC4)ccc3Cl)ncc1CC2	< 600 nM
CC(=O)Nc1nc2c(s1)-c1nc(-c3cc(C#CCCCNC4CCCC4)ccc3Cl)ncc1CC2	< 600 nM
CC(=O)Nc1nc2c(s1)-c1nc(-c3cccc(C#CC4(O)CCN(C(C)C)CC4)c3)ncc1CC2	< 600 nM
COC1(C#Cc2ccc(Cl)c(-c3ncc4c(n3)-c3sc(NC(C)=O)nc3CC4)c2)CCCCC1	< 600 nM
CC(=O)Nc1nc2c(s1)-c1nc(-c3cc(C#CCNC(=O)C4CCCC4)ccc3Cl)ncc1CC2	< 600 nM
CC(=O)Nc1nc2c(s1)-c1nc(-c3cc(C#CCCN4CCCCC4)ccc3Cl)ncc1CC2	< 600 nM
CC(=O)Nc1nc2c(s1)-c1nc(-c3cc(C#CCNC(=O)CC4CCCCC4)ccc3Cl)ncc1CC2	< 600 nM
CC(=O)Nc1nc2c(s1)-c1nc(-c3cc(C#CCNC(=O)CC4CCCC4)ccc3Cl)ncc1CC2	< 600 nM
CC(=O)Nc1nc2c(s1)-c1nc(-c3cc(C#CCCN(C)C(C)C)ccc3Cl)ncc1CC2	< 600 nM

SMILES	IC50
CC(=O)Nc1nc2c(s1)-c1nc(-c3cc(C#CCNCc4ccccn4)ccc3Cl)ncc1CC2	< 600 nM
CC(=O)Nc1nc2c(s1)-c1nc(-c3cccc(C#CC4CCN(C)CC4)c3)ncc1CC2	< 600 nM
COC1(C#Cc2ccc(F)c(-c3ncc4c(n3)-c3sc(NC(C)=O)nc3CC4)c2)CCN(C2CCCC2)CC1	< 600 nM
CC(=O)Nc1nc2c(s1)-c1nc(-c3cc(C#CCNC(=O)Cn4ccnc4)ccc3Cl)ncc1CC2	< 600 nM
CC(=O)Nc1nc2c(s1)-c1nc(-c3cc(C#CC4CCN(C(=O)C5CCCC5)CC4)ccc3Cl)ncc1CC2	< 600 nM
CC(=O)Nc1nc2c(s1)-c1nc(-c3cc(C#Cc4cncn4C)ccc3Cl)ncc1CC2	< 600 nM
CC(=O)Nc1nc2c(s1)-c1nc(-c3cc(C#CCCCN4CCCC4)ccc3Cl)ncc1CC2	< 600 nM
CNC(=O)NC1(C#Cc2ccc(Cl)c(-c3ncc4c(n3)-c3sc(NC(C)=O)nc3CC4)c2)CCCCC1	< 600 nM
CC(=O)Nc1nc2c(s1)-c1nc(-c3cc(C#CC4(O)CCN(C5CCCC5)CC4)ccc3F)ncc1CC2	< 600 nM
CC(=O)Nc1nc2c(s1)-c1nc(-c3cc(C#CCNC4CCCC4)ccc3Cl)ncc1CC2	< 600 nM
CC(=O)Nc1nc2c(s1)-c1nc(-c3cc(C#CC4(O)CCN(C(C)C)CC4)ccc3F)ncc1CC2	< 600 nM
CC(=O)Nc1nc2c(s1)-c1nc(-c3cc(C#CCN(C)S(=O)(=O)N(C)C)ccc3Cl)ncc1CC2	< 600 nM
CC(=O)Nc1nc2c(s1)-c1nc(-c3cc(C#CCO[C@@H]4CN5CCC4CC5)ccc3Cl)ncc1CC2	< 600 nM
CC(=O)Nc1nc2c(s1)-c1nc(-c3cccc(C#CCNC(=O)CC(C)(C)C)c3)ncc1CC2	< 600 nM
CC(=O)Nc1nc2c(s1)-c1nc(-c3cc(C#CC4(O)CCN(C(C)C)CC4)ccc3Cl)ncc1CC2	< 600 nM
CC(=O)Nc1nc2c(s1)-c1nc(-c3cc(C#CCCNC(C)C)ccc3Cl)ncc1CC2	< 600 nM
CC(=O)Nc1nc2c(s1)-c1nc(-c3cc(C#CCNC(C)C)ccc3Cl)ncc1CC2	< 600 nM
CC(=O)Nc1nc2c(s1)-c1nc(-c3cc(C#CCNCC(C)C)ccc3Cl)ncc1CC2	< 600 nM
CC(=O)NCC#Cc1cccc(-c2ncc3c(n2)-c2sc(NC(C)=O)nc2CC3)c1	< 600 nM
CC(=O)Nc1nc2c(s1)-c1nc(-c3cccc(C#CC4(O)CCN(C5CCCC5)CC4)c3)ncc1CC2	< 600 nM
CC(=O)Nc1nc2c(s1)-c1nc(-c3cc(C#CCCCN4CCC(N(C)C)CC4)ccc3Cl)ncc1CC2	< 600 nM
CC(=O)Nc1nc2c(s1)-c1nc(-c3cc(C#CCNC(=O)CC(C)C)ccc3Cl)ncc1CC2	< 600 nM

SMILES	IC50
CC(=O)Nc1nc2c(s1)-c1nc(-c3cc(C#CC4CCN(C(=O)CC5CCCC5)CC4)ccc3Cl)ncc1CC2	< 600 nM
CC(=O)Nc1nc2c(s1)-c1nc(-c3cc(C#CCCN(C)C(C)=O)ccc3Cl)ncc1CC2	< 600 nM
CC(=O)Nc1nc2c(s1)-c1nc(-c3cc(C#CCN(C)C(C)=O)ccc3Cl)ncc1CC2	< 600 nM
CC(=O)Nc1nc2c(s1)-c1nc(-c3cc(C#CC4CCN(C(=O)C(C)C)CC4)ccc3Cl)ncc1CC2	< 600 nM
CC(=O)Nc1nc2c(s1)-c1nc(-c3cc(C#CCNCC4CC4)ccc3Cl)ncc1CC2	< 600 nM
CC(=O)Nc1nc2c(s1)-c1nc(-c3cc(C#Cc4ccccc4)ccc3Cl)ncc1CC2	< 600 nM
CC(=O)Nc1nc2c(s1)-c1nc(-c3cc(C#CCN4CCCC4)ccc3Cl)ncc1CC2	< 600 nM
CC(=O)Nc1nc2c(s1)-c1nc(-c3cc(C#CCCN(C)C)ccc3Cl)ncc1CC2	< 600 nM
CC(=O)Nc1nc2c(s1)-c1nc(-c3cc(C#CCN(C)S(=O)(=O)C4CC4)ccc3Cl)ncc1CC2	< 600 nM
CNC1(C#Cc2ccc(Cl)c(-c3ncc4c(n3)-c3sc(NC(C)=O)nc3CC4)c2)CCCCC1	< 600 nM
CC(=O)Nc1nc2c(s1)-c1nc(-c3cc(C#CCNC(=O)NCC4CCCCC4)ccc3Cl)ncc1CC2	< 600 nM
CC(=O)Nc1nc2c(s1)-c1nc(-c3cc(C#CC4CCN(S(=O)(=O)N(C)C)CC4)ccc3Cl)ncc1CC2	< 600 nM
CC(=O)Nc1nc2c(s1)-c1nc(-c3cc(C#CCCCN4CCN(C)CC4)ccc3Cl)ncc1CC2	< 600 nM
CCNC1(C#Cc2ccc(Cl)c(-c3ncc4c(n3)-c3sc(NC(C)=O)nc3CC4)c2)CCCCC1	< 600 nM
CC(=O)Nc1nc2c(s1)-c1nc(-c3cc(C#CCNS(=O)(=O)N4CCOCC4)ccc3Cl)ncc1CC2	< 600 nM
CC(=O)Nc1nc2c(s1)-c1nc(-c3cc(C#Cc4cccnc4)ccc3Cl)ncc1CC2	< 600 nM
CC(=O)Nc1nc2c(s1)-c1nc(-c3cccc(C#CC4CCN(C5CCCC5)CC4)c3)ncc1CC2	< 600 nM
CC(=O)Nc1nc2c(s1)-c1nc(-c3cc(C#CCN)ccc3Cl)ncc1CC2	< 600 nM
CC(=O)Nc1nc2c(s1)-c1nc(-c3cc(C#CCNC(=O)C4CCCCC4)ccc3Cl)ncc1CC2	< 600 nM
CC(=O)Nc1nc2c(s1)-c1nc(-c3cc(C#CC4CCN(S(=O)(=O)C(C)C)CC4)ccc3Cl)ncc1CC2	< 600 nM
CC(=O)Nc1nc2c(s1)-c1nc(-c3cc(C#CC4(NC(C)C)CCCCC4)ccc3Cl)ncc1CC2	< 600 nM
CC(=O)Nc1nc2c(s1)-c1nc(-c3cc(C#CCNS(=O)(=O)C4CC4)ccc3Cl)ncc1CC2	< 600 nM

SMILES	IC50
CC(=O)Nc1nc2c(s1)-c1nc(-c3cc(Cl)cc(C#CCNS(C)(=O)=O)c3)ncc1CC2	< 600 nM
CC(=O)Nc1nc2c(s1)-c1nc(-c3cc(C#CCNS(C)(=O)=O)ccc3Cl)ncc1CC2	< 600 nM
CC(=O)Nc1nc2c(s1)-c1nc(-c3cc(C#CCN4CCNC(=O)C4)ccc3Cl)ncc1CC2	< 600 nM
CC(=O)Nc1nc2c(s1)-c1nc(-c3cc(C#CCNS(=O)(=O)N4CCCC4)ccc3Cl)ncc1CC2	< 600 nM
CC(=O)Nc1nc2c(s1)-c1nc(-c3cccc(C#CCNS(=O)(=O)C4CC4)c3)ncc1CC2	< 600 nM
CC(=O)Nc1nc2c(s1)-c1nc(-c3cc(C#CC4CCN(C(=O)N(C)C)CC4)ccc3Cl)ncc1CC2	< 600 nM
CC(=O)Nc1nc2c(s1)-c1nc(-c3cccc(C#CCN(C)C)c3)ncc1CC2	< 600 nM
CC(=O)Nc1nc2c(s1)-c1nc(-c3cc(C#CCN4CCC(N(C)C)CC4)ccc3Cl)ncc1CC2	< 600 nM
CC(=O)Nc1nc2c(s1)-c1nc(-c3cc(C#CCCNCC4CCCC4)ccc3Cl)ncc1CC2	< 600 nM
CCS(=O)(=O)NCC#Cc1ccc(Cl)c(-c2ncc3c(n2)-c2sc(NC(C)=O)nc2CC3)c1	< 600 nM
CC(=O)Nc1nc2c(s1)-c1nc(-c3cc(C#CCNC4CCN(C)CC4)ccc3Cl)ncc1CC2	< 600 nM
COC1(C#Cc2ccc(Cl)c(-c3ncc4c(n3)-c3sc(NC(C)=O)nc3CC4)c2)CCN(C2CCCC2)CC1	< 600 nM
CC(=O)Nc1nc2c(s1)-c1nc(-c3cc(C#CCCCN(C)C(C)C)ccc3Cl)ncc1CC2	< 600 nM
CC(=O)Nc1nc2c(s1)-c1nc(-c3cc(C#CCN(C)C(=O)C(C)C)ccc3Cl)ncc1CC2	< 600 nM
CC(=O)Nc1nc2c(s1)-c1nc(-c3cc(C#CCNC(=O)CN(C)C)ccc3Cl)ncc1CC2	< 600 nM
CNC(=O)Nc1nc2c(s1)-c1nc(-c3cc(C#CC4CCN(C5CCCC5)CC4)ccc3Cl)ncc1CC2	< 600 nM
CC(=O)Nc1nc2c(s1)-c1nc(-c3cc(C#CCNS(=O)(=O)Cc4ccccc4)ccc3Cl)ncc1CC2	< 600 nM
COCC#Cc1ccc(Cl)c(-c2ncc3c(n2)-c2sc(NC(C)=O)nc2CC3)c1	< 600 nM
CC(=O)Nc1nc2c(s1)-c1nc(-c3cc(C#CC4CCN(C(=O)NC(C)C)CC4)ccc3Cl)ncc1CC2	< 600 nM
CC(=O)Nc1nc2c(s1)-c1nc(-c3cc(C#CCNS(=O)(=O)c4ccccc4)ccc3Cl)ncc1CC2	< 600 nM
CC(=O)Nc1nc2c(s1)-c1nc(-c3cccc(C#CCNC(=O)C4CCN(C)CC4)c3)ncc1CC2	< 600 nM
CC(=O)Nc1nc2c(s1)-c1nc(-c3cc(C#CCN4CCN(C(C)C)CC4)ccc3Cl)ncc1CC2	< 600 nM
